In patent publication US20230242551A1, “ISOTOPE-SUBSTITUTED SPIRO AROMATIC RING COMPOUND AND APPLICATION THEREOF” (ETERN BIOPHARMA (SHANGHAI) CO., LTD., priority 2020, published 2023):

Legend:
[1] = Liver microsomal metabolic stability test (human); assay type: in vitro ADME; settings: NADPH, 37° C.; for half-life at 1 µM / microsomal CLint at 1 µM: pH 7.4; for half-life at 1 µM: read-out: Human hepatic microsomal metabolic half-life; for microsomal CLint at 1 µM: read-out: Intrinsic clearance of human hepatic microsomes in body
Description: (§1) 1) Preparation of stock and working solutions of the compound: An appropriate amount of the compound was weighed and dissolved in DMSO to give a 10 mM stock solution, and the stock solution was further diluted with ACN to give a 100 µM working solution.
Each positive control standard was dissolved separately with DMSO to obtain a 10 mM stock solution and further diluted with ACN to obtain a 100 µM working solution.
(§2) 73.21 g of dipotassium hydrogen phosphate trihydrate and 10.78 g of potassium dihydrogen phosphate were dissolved in 4000 mL of ultrapure water. The pH of the solution was adjusted to 7.40 ± 0.10 with 10% phosphoric acid or 1 M potassium hydroxide and the final concentration was 100 mM.
Human liver microsomes (20 mg/mL) were diluted with the phosphate buffer solution to obtain 0.56 mg/mL of a liver microsomal working solution.
(§3) NADPH was weighed and dissolved in the phosphate buffer solution to obtain a 10 mM solution.
1) Preparation of Blank: 54 µL of human liver microsomal working solution was transferred to a blank sample plate, then added with 6 µL of NADPH working solution, and finally added with 180 µL of ACN solution containing 200 ng/mL of tolbutamide and labetalol (internal standard) to precipitate the protein.
445 µL of human liver microsomal working solution (MWS) was added to the cofactor-free incubation sample plate, pre-incubated at 37° C. for 10 min, and then fully mixed after the addition of 5 µL of working solution of positive control or the compound to be tested.
50 µL of phosphate buffer solution was added to the above incubation sample plate, fully mixed and incubated at 37° C. for 60 min.
After the incubation is complete, 60 µL of incubation solution was taken into a pellet plate, and then added with 180 µL of ACN solution containing 200 ng/mL of tolbutamide and labetalol (internal standard) to precipitate the protein.
(§4) 445 µL of human/rat liver microsomal working solution (MWS) was added to the incubation sample plate, pre-incubated at 37° C. for 10 min, and then fully mixed after the addition of 5 µL of working solution of positive control or the compound to be tested.
(§5) 54 µL of the above intermediate working solution was transferred to the zero-time sample plate (T0), then added with 180 µL of ACN solution containing 200 ng/mL tolubutamide and labetalol (internal standard) to precipitate the protein, and finally added with 6 µL of NADPH working solution.
(§6) 44 µL of NADPH working solution was added to 396 µL of microsomal working solution containing positive control or the compound to be tested (remaining solution after the operation of steps (1) and (2)) and incubated at 37° C. At the time points of 5, 15, 30, 45, and 60 min, 60 uL of incubation solution was taken and added to 180 µL of ACN solution containing 200 ng/mL of tolubutamide and labetalol (internal standard) to precipitate the protein.
(§7) Centrifuged collected supernatants were analyzed with LC-MS/MS after appropriate dilution.
(§8) The peak area ratio of the analyte to the internal standard was used to calculate the relative percentage content of the compound after incubation and to perform exponential function fitting. The calculation formula was as follows: […]
(§9) wherein k was the rate constant obtained by linear regression taking the concentration logarithm as the ordinate and the incubation time as the absciss.
(§10) wherein CLint was the Intrinsic clearance.

[2] = Liver microsomal metabolic stability test (rat); assay type: in vitro ADME; settings: NADPH, 37° C.
Description: as §1, §2, §3, §4, §5, §6, §7, §8, §9, §10

[3] = human liver microsomes, 0-60 min

Row | Compound | half-life at 1 µM [1, 3] | microsomal CLint at 1 µM ([1]; human liver microsomes) | Intrinsic clearance of human hepatic microsomes in body [1] | Human hepatic microsomal metabolic half-life [1, 3] | Intrinsic clearance of rat hepatic microsomes in body [2] | Rat hepatic microsomal metabolic half-life ([2]; rat liver microsomes, 0-60 min) | half-life at 1 µM ([2]; pH 7.4, rat liver microsomes, 0-60 min, read-out: Rat hepatic microsomal metabolic half-life) | microsomal CLint at 1 µM ([2]; pH 7.4, rat liver microsomes, read-out: Intrinsic clearance of rat hepatic microsomes in body)
1 | [2H]C1([2H])c2ncccc2[C@@]([2H])(N)C12CCN(c1ncc(Sc3ccnc(N)c3Cl)c3nccn13)CC2 [Compound 12] | 77 min | 18 µL/min/mg | – | – | – | – | – | –
2 | Nc1nccc(Sc2cnc(N3CCC4(CC3)Cc3ncccc3[C@H]4N)n3ccnc23)c1Cl [Compound 1] | – | – | 26 µL/min/mg | 54 min | 19 µL/min/mg | 70 min | – | –
3 | [2H][C@@]1(N)c2cccnc2CC12CCN(c1ncc(Sc3ccnc(N)c3Cl)c3nccn13)CC2 [Compound 10] | 72 min | 19 µL/min/mg | – | – | – | – | 122 min | 11.4 µL/min/mg
